Measured values published in patent US20250206761A1, “HALOINDOLE MACROCYCLIC COMPOUNDS FOR THE TREATMENT OF CANCER” (Hoffmann-La Roche Inc., priority 2022, published 2025).

Details: from CO[C@@H](C)c1ncc(N2CCN(C(=O)OCc3ccccc3)CC2)cc1-c1c(CC(C)(C)CO)c2cc(-c3cc(C[C@H](NC(=O)OC(C)(C)C)C(=O)N4CCC[C@@H](C(=O)O)N4)cc(O[Si](C(C)C)(C(C)C)C(C)C)c3)c(F)cc2n1CC(F)(F)F; ester bond; EDCI/HOBt/DIEA; DCM; 8.33 mM; 15.0 °C; 12.0 h

SMILES: CO[C@@H](C)c1ncc(N2CCN(C(=O)OCc3ccccc3)CC2)cc1-c1c2c3cc(c(F)cc3n1CC(F)(F)F)-c1cc(cc(O[Si](C(C)C)(C(C)C)C(C)C)c1)C[C@H](NC(=O)OC(C)(C)C)C(=O)N1CCC[C@H](N1)C(=O)OCC(C)(C)C2
- ring closure, yield of all isomers: 74.2%
